How the values were obtained:
[1] = 24-month study in rats; auranofin 1.0 or 2.5 mg/kg/day orally; gold sodium thiomalate 2 or 6 mg/kg twice weekly; cited from earlier work
A673 = assay: Hits validation, dose-response cell proliferation (CellTiter-Glo); format: cell-based; conditions: Homo sapiens, A673; 12-point dose-response 50 μmol/L to 1 nmol/L, mean ± SD
Method: (§1) For hits validation and combination study, cells were harvested and aliquoted into 384-well plates at concentrations of 750–1,500 cells per well in a total of 20 μl/well using a Matrix Wellmate (Thermo Scientific). Five μl of culture media containing either vehicles or drug were added to each well the next day (drug concentrations range from 1 nmol/L to 50 μmol/L). For combination study, selected drugs were archived in robotically accessible plates, to which media was added in preparation for addition to master plates by a Nimbus 96 liquid-dispensing workstation (Hamilton). Liquid transfers to dilution and assay plates were handled using the same workstation. Each 384-well master plate contained four 9 by 9 dose-matrix blocks, with eight serial two-fold dilutions (concentrations range from 7.8 nmol/L to 1 μmol/L). Additional wells were reserved for untreated, and vehicle-treated control wells. Cell proliferation was evaluated using Cell-Titer Glo® reagents (Promega). IC50 values were determined for each drug using SigmaPlot (Systat Software). The combination index values were calculated using SigmaPlot (Systat Software) and CompuSyn.

CHLA-258 = assay: as above; format: cell-based; conditions: 12-point dose-response 50 μmol/L to 1 nmol/L, mean ± SD
Method: as §1

COG-E-352 = assay: as above; format: cell-based; conditions: 12-point dose-response 50 μmol/L to 1 nmol/L, mean ± SD
Method: as §1

Hs 822.T. = assay: as above; format: cell-based; conditions: control cell line, 12-point dose-response, mean ± SD
Method: as §1

Hs 863.T. = assay: as above; format: cell-based; conditions: control cell line, 12-point dose-response, mean ± SD
Method: as §1

RD-ES = assay: as above; format: cell-based; conditions: RD-ES; 12-point dose-response 50 μmol/L to 1 nmol/L, mean ± SD
Method: as §1

SK-ES-1 = assay: as above; format: cell-based; conditions: Homo sapiens, SK-ES1; 12-point dose-response 50 μmol/L to 1 nmol/L, mean ± SD
Method: as §1

TC-71 = assay: as above; format: cell-based; conditions: TC-71; 12-point dose-response 50 μmol/L to 1 nmol/L, mean ± SD
Method: as §1

Hs 919.T. = assay: as above; format: cell-based; conditions: control cell line, 12-point dose-response, mean ± SD
Method: These drugs were chosen based on their known mechanisms and safety profiles. We also tested the synergy between these drug hits (Supplementary Figures S6–S11). […] We evaluated the anti-proliferation effect in combination treatments using the EWS and control cell lines.
as §1

[2] = test system: cancer cells with EWS-FLI1 mutations; set-up: method as in GDSC database, cancerrxgene.org; conditions: ref GDSC database, cancerrxgene.org; cited from earlier work
EWS cell lines = assay: Combination study (dose matrix, CellTiter-Glo, combination index); format: cell-based
Method: Next, the predicted and library screened drugs were extensively validated. The in vitro activities of each drug hit were evaluated in an expanded panel of EWS cell lines (either the EWS/FLI1 or the EWS/ERG fusion) (Table 1) and confirmed employing 12-point dose-response curves ranging from 50 μmol/L to 1 nmol/L, with triplicate sampling (Table 3). As mentioned above, one of the most notable drug hits discovered through both the in silico and in vitro drug screening approaches was auranofin. Based on this finding, we subsequently screened auranofin against six other marketed or investigational anticancer drug hits (carfilzomib, elesclomol, bortezomib, geldanamycin, AUY922, and ganetespib, Supplementary Figures S1–S5 and Figure 2). These drugs were chosen based on their known mechanisms and safety profiles. […] We evaluated the anti-proliferation effect in combination treatments using the EWS and control cell lines. […]
For hits validation and combination study, cells were harvested and aliquoted into 384-well plates at concentrations of 750–1,500 cells per well in a total of 20 μl/well using a Matrix Wellmate (Thermo Scientific). […] Cell proliferation was evaluated using Cell-Titer Glo® reagents (Promega). IC50 values were determined for each drug using SigmaPlot (Systat Software). The combination index values were calculated using SigmaPlot (Systat Software) and CompuSyn.

A673 cells = assay: In vivo xenograft mouse model; conditions: auranofin 12 mg/kg i.p. 5 days per week, ganetespib 150 mg/kg i.v. once weekly; p < 0.05
Method: To assess the antitumor activity of auranofin (using an alternative delivery approach), ganetespib and the combination treatments in vivo, we generated a xenograft nude mouse model by injecting A673 cells intramuscularly proximal to the tibia. Based on the dose tolerance and pharmacokinetic studies described above, we administered auranofin at a tolerable daily i.p. dose that achieved adequate systemic drug exposure. Auranofin was administered with a dose of 12 mg/kg through an i.p. injection once a day for 5 days per week, and ganetespib was administered with a dose of 150 mg/kg through an i.v. injection once weekly. Mice that grew palpable tumors were randomized into four groups: vehicle, auranofin-only, ganetespib-only, and the combination.
The guidelines adopted by the Institutional Animal Care and Use Committee of the University of Kansas Medical Center (KUMC-IACUC) were followed in all performed procedures. All experimental protocols were approved by KUMC-IACUC. Homozygous athymic nude (Foxn1nu/Foxn1nu) female mice at the age of 4-weeks were purchased from Jackson Laboratories. After one week, one million A673 cells in PBS (pH = 7.3) were injected into mice. The cells were injected intramuscularly proximal to the tibia and treatment started after 15 days of inoculation. Mice developing palpable tumors were divided into 4 arms and treated for up to 18 days: vehicle (20% Cremophor RH40 and 80% D5W iv and 0.5% HPMC K4M ip), auranofin (12 mg/kg i.p. injection 5 days per week), ganetespib (150 mg/kg i.v. injection once weekly), as well as auranofin and ganetespib combined. Mice were evaluated for overall health and weighed every week. When tumor size impeded mobility, mice were sacrificed and necropsies were performed. Tumors were then dissected, measured and processed for analysis. The liver, kidneys, and spleen were also snap frozen in liquid nitrogen or fixed in 10% neutral buffered formalin and paraffin embedded for toxicity studies. Tissues were then subjected to hematoxylin and eosin (H&E) staining and immunohistochemical staining. […]

| IC50 (SK-ES-1) | SMILES | frequency of renal tubular cell karyomegaly and cytomegaly and renal adenoma [1] | IC50 (A673) | IC50 (CHLA-258) | IC50 (COG-E-352) | IC50 (Hs 822.T.) | IC50 (Hs 863.T.) | IC50 (RD-ES) | IC50 (TC-71) | IC50 (Hs 919.T.) | sensitivity of cancer cells with EWS-FLI1 mutations compared with wild-type [2] | synergy in combination with auranofin (EWS cell lines) | survival rate versus control group (A673 cells) |
| --- | --- | --- | --- | --- | --- | --- | --- | --- | --- | --- | --- | --- | --- |
| – | O=C([O-])CC([S-])C(=O)[O-].[Au+].[Na+].[Na+] (centres unmarked) [gold sodium thiomalate] | significant incr ease | – | – | – | – | – | – | – | – | – | – | – |
| 10 ± 1 nM | CN(NC(=O)CC(=O)NN(C)C(=S)c1ccccc1)C(=S)c1ccccc1 [Elesclomol] | – | 6 ± 6 nM | < 3 nM | 0.007 ± 0.002 µM | > 20 µM | > 20 µM | 50 ± 60 nM | < 0.003 µM | > 20 µM | preferentially sensitive | – | – |
| > 50000 nM | CC1=C(/C=C/C(C)=C/C=C/C(C)=C/C(=O)O)C(C)(C)CCC1 [Tretinoin] | – | > 50000 nM | 4950 ± 3820 nM | 35.5 ± 6.28 µM | > 50 µM | > 50 µM | > 50000 nM | > 50 µM | > 50 µM | – | – | – |
| > 50000 nM | COc1cc2nc(N(C)CCCNC(=O)C3CCCO3)nc(N)c2cc1OC (centres unmarked) [Alfuzosin] | – | > 50000 nM | > 50000 nM | > 50 µM | > 50 µM | > 50 µM | > 50000 nM | > 50 µM | > 50 µM | – | – | – |
| > 50000 nM | CC(=O)[C@H]1CC[C@H]2[C@@H]3CCC4=CC(=O)CC[C@]4(C)[C@H]3CC[C@]12C [Progesterone] | – | > 50000 nM | 11500 ± 5310 nM | 24.9 ± 5.85 µM | > 50 µM | > 50 µM | > 50000 nM | > 50 µM | > 50 µM | – | – | – |
| > 25000 nM | CN(C)CCCN1c2ccccc2Sc2ccc(Cl)cc21 [Chlorpromazine] | – | 10600 ± 2150 nM | 15300 ± 4550 nM | 16.1 ± 2.29 µM | 16.8 ± 3.22 µM | 18.4 ± 3.07 µM | > 25000 nM | 17.6 ± 8.63 µM | 15.5 ± 2.09 µM | – | – | – |
| > 50000 nM | c1coc(CNc2ncnc3[nH]cnc23)c1 [Kinetin] | – | > 50000 nM | > 50000 nM | > 50 µM | > 50 µM | > 50 µM | > 50000 nM | > 50 µM | > 50 µM | – | – | – |
| 30 ± 2 nM | CCNC(=O)c1noc(-c2cc(C(C)C)c(O)cc2O)c1-c1ccc(CN2CCOCC2)cc1 [AUY922] | – | 20 ± 2 nM | < 3 nM | < 0.003 µM | > 20 µM | > 20 µM | 9 ± 1 nM | < 0.003 µM | > 20 µM | – | highly synergistic | – |
| 20 ± 2 nM | CC(C)C[C@H](NC(=O)[C@H](Cc1ccccc1)NC(=O)c1cnccn1)B(O)O [Bortezomib] | – | 10 ± 3 nM | 7 nM | 0.005 µM | 0.45 ± 0.08 µM | 0.18 ± 0.03 µM | 10 ± 1 nM | 0.005 ± 0.0081 µM | 0.17 ± 0.003 µM | – | – | – |
| 2400 ± 1010 nM | Nc1ccccc1NC(=O)c1ccc(CNC(=O)OCc2cccnc2)cc1 [MS275] | – | 2500 ± 1020 nM | 150 ± 30 nM | 1.47 ± 0.54 µM | > 25 µM | > 25 µM | 2000 ± 850 nM | 1.53 ± 0.49 µM | > 50 µM | – | – | – |
| 3860 ± 890 nM | CCC(C)(C)C(=O)O[C@H]1C[C@@H](C)C=C2C=C[C@H](C)[C@H](CC[C@@H]3C[C@@H](O)CC(=O)O3)[C@H]21 [Simvastatin] | – | 580 ± 50 nM | 250 ± 130 nM | 10.5 ± 1.7 µM | 2.08 ± 0.84 µM | 4.1 ± 0.56 µM | 3250 ± 140 nM | 4.33 ± 3.86 µM | 2.88 ± 0.58 µM | – | – | – |

| SMILES | IC50 (SK-ES-1) | frequency of renal tubular cell karyomegaly and cytomegaly and renal adenoma [1] | IC50 (A673) | IC50 (CHLA-258) | IC50 (COG-E-352) | IC50 (Hs 822.T.) | IC50 (Hs 863.T.) | IC50 (RD-ES) | IC50 (TC-71) | IC50 (Hs 919.T.) | sensitivity of cancer cells with EWS-FLI1 mutations compared with wild-type [2] | synergy in combination with auranofin (EWS cell lines) | survival rate versus control group (A673 cells) |
| --- | --- | --- | --- | --- | --- | --- | --- | --- | --- | --- | --- | --- | --- |
| CN(C)CCOC(=O)COc1ccc(Cl)cc1 [Meclofenoxate] | > 50000 nM | – | > 50000 nM | > 50000 nM | > 50 µM | > 50 µM | > 50 µM | > 50000 nM | > 50 µM | > 50 µM | – | – | – |
| C[n+]1cc2c3c(ccc2c2ccc4cc5c(cc4c21)OCO5)OCO3 [Sanguinarine] | 1870 ± 510 nM | – | 750 ± 140 nM | 950 ± 310 nM | 1.05 ± 0.18 µM | 1.55 ± 0.26 µM | 1.25 ± 0.14 µM | 1500 ± 120 nM | 0.2 ± 0.08 µM | 1.44 ± 0.32 µM | – | – | – |
| COc1cc(NC(C)CCCN)c2ncccc2c1 (centres unmarked) [Primaquine] | > 25000 nM | – | 32500 ± 6580 nM | 7140 ± 2210 nM | 13.3 ± 4.09 µM | > 25 µM | > 25 µM | > 25000 nM | 14.3 ± 3.71 µM | > 50 µM | – | – | – |
| CC(C)c1cc(-c2n[nH]c(=O)n2-c2ccc3c(ccn3C)c2)c(O)cc1O [ganetespib] | 10 ± 1 nM | – | 40 ± 10 nM | < 3 nM | < 0.003 µM | > 20 µM | > 20 µM | 20 ± 20 nM | < 0.003 µM | > 20 µM | – | highly synergistic | significantly increased the survival rate |

— publication PMC5354814, “In silico and in vitro drug screening identifies new therapeutic approaches for Ewing sarcoma” (Oncotarget, 2016)
